Measurements from ChEMBL document CHEMBL5346882 (Eur J Med Chem, 2023).
Each block holds one molecule with its values, some of them ahead of it.

Columns and labels:
Beta-secretase 1 = Beta-secretase 1 (Homo sapiens, UniProt P56817); experiment: Inhibition of human recombinant BACE-1 expressed in baculovirus using swedish mutant of APP based Rh-EVNLDAEFK-quencher as substrate incubated for 60 mins by FRET assay
Cholinesterase = Cholinesterase (Homo sapiens, UniProt P06276); experiment: Inhibition of human recombinant BuChE using butyrylthiocholine iodide as substrate preincubated for 5 mins followed by substrate addition and measured every 2 mins by DTNB-reagent based Ellman's method
Chain of Cholinesterase (P06276 whole entry): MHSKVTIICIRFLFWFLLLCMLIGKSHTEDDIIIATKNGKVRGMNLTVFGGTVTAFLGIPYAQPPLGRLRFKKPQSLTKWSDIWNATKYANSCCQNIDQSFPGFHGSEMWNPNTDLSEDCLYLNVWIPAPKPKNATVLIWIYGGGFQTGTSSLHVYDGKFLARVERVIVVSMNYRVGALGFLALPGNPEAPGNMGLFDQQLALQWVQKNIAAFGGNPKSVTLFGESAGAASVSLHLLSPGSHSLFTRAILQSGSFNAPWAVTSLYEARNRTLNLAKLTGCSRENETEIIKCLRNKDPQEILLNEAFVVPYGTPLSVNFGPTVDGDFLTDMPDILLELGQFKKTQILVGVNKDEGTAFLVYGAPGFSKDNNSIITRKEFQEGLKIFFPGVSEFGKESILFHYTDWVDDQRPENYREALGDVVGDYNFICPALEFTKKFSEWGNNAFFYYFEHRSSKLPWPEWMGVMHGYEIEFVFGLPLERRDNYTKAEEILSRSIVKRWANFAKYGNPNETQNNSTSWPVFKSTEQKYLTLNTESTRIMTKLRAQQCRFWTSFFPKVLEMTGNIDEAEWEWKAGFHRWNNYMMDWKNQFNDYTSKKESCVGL

Cytochrome P450 2D6 = Cytochrome P450 2D6 (Homo sapiens, UniProt P10635); experiment: Inhibition of CYP2D6 (unknown origin) at 10 uM; type: ADME
Chain of Cytochrome P450 2D6 (P10635 whole entry): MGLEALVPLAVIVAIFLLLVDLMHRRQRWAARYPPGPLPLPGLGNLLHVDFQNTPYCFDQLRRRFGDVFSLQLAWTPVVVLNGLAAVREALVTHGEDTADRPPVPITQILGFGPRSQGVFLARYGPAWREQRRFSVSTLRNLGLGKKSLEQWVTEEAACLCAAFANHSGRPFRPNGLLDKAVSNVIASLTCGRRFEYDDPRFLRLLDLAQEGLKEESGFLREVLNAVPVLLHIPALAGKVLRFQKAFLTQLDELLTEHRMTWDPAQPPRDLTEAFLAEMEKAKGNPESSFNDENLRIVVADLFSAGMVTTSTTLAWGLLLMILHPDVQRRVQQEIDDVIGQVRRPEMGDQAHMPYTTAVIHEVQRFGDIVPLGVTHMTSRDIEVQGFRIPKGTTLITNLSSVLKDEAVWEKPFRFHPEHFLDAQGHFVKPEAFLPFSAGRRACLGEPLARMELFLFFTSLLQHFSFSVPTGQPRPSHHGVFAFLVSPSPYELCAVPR

[1] = AUC (0 to t) in CD-1 mouse plasma at 10 mg/kg, ip administered as single dose and measured after 15 to 240 mins by LC-MS/MS analysis; type: ADME, organism-based; design: time upper 240 min, dose 10 mg/kg, time lower 15 min, route ip
[2] = Ratio of brain to plasma partition coefficient in CD-1 mouse at 10 mg/kg, ip administered as single dose and measured after 15 to 240 mins by LC-MS/MS analysis; type: ADME, organism-based; details: time 15-240 min, read-out: BPR
[3] = Cmax in CD-1 mouse plasma at 30 mg/kg, ip administered as single dose and measured after 15 to 240 mins by LC-MS/MS analysis; type: ADME, organism-based; design: time upper 240 min, time lower 15 min, dose 30 mg/kg, route ip
[4] = Half life in CD-1 mouse plasma at 30 mg/kg, ip administered as single dose and measured after 15 to 240 mins by LC-MS/MS analysis; type: ADME, organism-based; details: time 15-240 min
[5] = Tmax in CD-1 mouse plasma at 10 mg/kg, ip administered as single dose and measured after 15 to 240 mins by LC-MS/MS analysis; type: ADME, organism-based; details: time 15-240 min
[6] = Drug metabolism in human liver microsomes assessed as N-dealkylation mediated metabolite formation; type: ADME, Microsome
[7] = AUC (0 to t) in CD-1 mouse brain at 10 mg/kg, ip administered as single dose and measured after 15 to 240 mins by LC-MS/MS analysis; type: ADME, organism-based; design: time 15-240 min, dose 10 mg/kg, route ip
[8] = Metabolic stability in human liver microsomes assessed as parent compound remaining incubated for 120 mins in presence of NADPH regeneration system by UPLC/MS analysis; type: ADME, Microsome; details: read-out: Stability
cells [9] = details: Mus musculus, HEK293
Description: Inhibition of mouse GAT2 expressed in HEK293 cells assessed as reduction in [3H]-GABA uptake incubated for 10 mins

[10] = Apparent volume of distribution in CD-1 mouse plasma at 30 mg/kg, ip administered as single dose and measured after 15 to 240 mins by LC-MS/MS analysis; type: ADME, organism-based; details: in vivo, time 15-240 min
[11] = MRT in CD-1 mouse brain at 30 mg/kg, ip administered as single dose and measured after 15 to 240 mins by LC-MS/MS analysis; type: ADME, organism-based; details: time 15-240 min
[12] = Apparent clearance in CD-1 mouse plasma at 10 mg/kg, ip administered as single dose and measured after 15 to 240 mins by LC-MS/MS analysis; type: ADME, organism-based; details: time 15-240 min, read-out: CL(app)
[13] = Half life in CD-1 mouse brain at 10 mg/kg, ip administered as single dose and measured after 15 to 240 mins by LC-MS/MS analysis; type: ADME, organism-based; details: time 15-240 min
[14] = MRT in CD-1 mouse plasma at 30 mg/kg, ip administered as single dose and measured after 15 to 240 mins by LC-MS/MS analysis; type: ADME, organism-based; details: time 15-240 min
[15] = Half life in CD-1 mouse plasma at 10 mg/kg, ip administered as single dose and measured after 15 to 240 mins by LC-MS/MS analysis; type: ADME, organism-based; details: time 15-240 min
[16] = Cmax in CD-1 mouse brain at 30 mg/kg, ip administered as single dose and measured after 15 to 240 mins by LC-MS/MS analysis; type: ADME, organism-based; design: time upper 240 min, time lower 15 min, dose 30 mg/kg, route ip
[17] = AUC (0 to t) in CD-1 mouse plasma at 30 mg/kg, ip administered as single dose and measured after 15 to 240 mins by LC-MS/MS analysis; type: ADME, organism-based; design: dose 30 mg/kg, time 15-240 min, route ip
[18] = MRT in CD-1 mouse brain at 10 mg/kg, ip administered as single dose and measured after 15 to 240 mins by LC-MS/MS analysis; type: ADME, organism-based; details: time 15-240 min
[19] = molecular target: Sodium- and chloride-dependent GABA transporter 1 (Mus musculus, UniProt P31648); experiment: Inhibition of mouse GAT1 expressed in HEK293 cells assessed as reduction in [3H]-GABA uptake incubated for 10 mins; type: cell-based
[20] = Cmax in CD-1 mouse plasma at 10 mg/kg, ip administered as single dose and measured after 15 to 240 mins by LC-MS/MS analysis; type: ADME, organism-based; design: dose 10 mg/kg, time 15-240 min, route ip
[21] = Half life in CD-1 mouse brain at 30 mg/kg, ip administered as single dose and measured after 15 to 240 mins by LC-MS/MS analysis; type: ADME, organism-based; details: time 15-240 min
Cytochrome P450 3A4 = Cytochrome P450 3A4 (Homo sapiens, UniProt P08684); experiment: Inhibition of CYP3A4 (unknown origin) at 10 uM; type: ADME
Chain of Cytochrome P450 3A4 (P08684 whole entry): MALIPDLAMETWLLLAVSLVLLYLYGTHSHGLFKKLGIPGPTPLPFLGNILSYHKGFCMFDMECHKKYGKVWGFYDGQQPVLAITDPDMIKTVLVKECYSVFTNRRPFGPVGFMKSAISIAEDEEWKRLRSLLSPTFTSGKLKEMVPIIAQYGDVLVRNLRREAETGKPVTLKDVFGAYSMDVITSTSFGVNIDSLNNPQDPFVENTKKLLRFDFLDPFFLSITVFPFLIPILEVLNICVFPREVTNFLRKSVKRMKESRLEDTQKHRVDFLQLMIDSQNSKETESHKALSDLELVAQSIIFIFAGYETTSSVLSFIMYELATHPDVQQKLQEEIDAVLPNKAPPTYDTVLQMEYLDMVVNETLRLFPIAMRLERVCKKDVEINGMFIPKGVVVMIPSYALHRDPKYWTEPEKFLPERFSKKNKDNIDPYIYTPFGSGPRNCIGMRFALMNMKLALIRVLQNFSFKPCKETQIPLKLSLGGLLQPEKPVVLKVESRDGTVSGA

cells [22] = details: Mus musculus, HEK293; remark: listed apart in the source
Description: Inhibition of mouse GAT3 expressed in HEK293 cells assessed as reduction in [3H]-GABA uptake incubated for 10 mins

[23] = Tmax in CD-1 mouse brain at 30 mg/kg, ip administered as single dose and measured after 15 to 240 mins by LC-MS/MS analysis; type: ADME, organism-based; details: time 15-240 min
[24] = Apparent volume of distribution in CD-1 mouse plasma at 10 mg/kg, ip administered as single dose and measured after 15 to 240 mins by LC-MS/MS analysis; type: ADME, organism-based; details: in vivo, time 15-240 min
[25] = Ratio of brain to plasma partition coefficient in CD-1 mouse at 30 mg/kg, ip administered as single dose and measured after 15 to 240 mins by LC-MS/MS analysis; type: ADME, organism-based; details: time 15-240 min, read-out: BPR
[26] = molecular target: ATP-dependent translocase ABCB1 (Homo sapiens, UniProt P08183); experiment: Substrate activity at P-gp membranes (unknown origin) at 100 uM incubated for 40 mins by luminescent glo assay relative to control; type: ADME, cell membranes, Membrane
Chain of ATP-dependent translocase ABCB1 (P08183 whole entry): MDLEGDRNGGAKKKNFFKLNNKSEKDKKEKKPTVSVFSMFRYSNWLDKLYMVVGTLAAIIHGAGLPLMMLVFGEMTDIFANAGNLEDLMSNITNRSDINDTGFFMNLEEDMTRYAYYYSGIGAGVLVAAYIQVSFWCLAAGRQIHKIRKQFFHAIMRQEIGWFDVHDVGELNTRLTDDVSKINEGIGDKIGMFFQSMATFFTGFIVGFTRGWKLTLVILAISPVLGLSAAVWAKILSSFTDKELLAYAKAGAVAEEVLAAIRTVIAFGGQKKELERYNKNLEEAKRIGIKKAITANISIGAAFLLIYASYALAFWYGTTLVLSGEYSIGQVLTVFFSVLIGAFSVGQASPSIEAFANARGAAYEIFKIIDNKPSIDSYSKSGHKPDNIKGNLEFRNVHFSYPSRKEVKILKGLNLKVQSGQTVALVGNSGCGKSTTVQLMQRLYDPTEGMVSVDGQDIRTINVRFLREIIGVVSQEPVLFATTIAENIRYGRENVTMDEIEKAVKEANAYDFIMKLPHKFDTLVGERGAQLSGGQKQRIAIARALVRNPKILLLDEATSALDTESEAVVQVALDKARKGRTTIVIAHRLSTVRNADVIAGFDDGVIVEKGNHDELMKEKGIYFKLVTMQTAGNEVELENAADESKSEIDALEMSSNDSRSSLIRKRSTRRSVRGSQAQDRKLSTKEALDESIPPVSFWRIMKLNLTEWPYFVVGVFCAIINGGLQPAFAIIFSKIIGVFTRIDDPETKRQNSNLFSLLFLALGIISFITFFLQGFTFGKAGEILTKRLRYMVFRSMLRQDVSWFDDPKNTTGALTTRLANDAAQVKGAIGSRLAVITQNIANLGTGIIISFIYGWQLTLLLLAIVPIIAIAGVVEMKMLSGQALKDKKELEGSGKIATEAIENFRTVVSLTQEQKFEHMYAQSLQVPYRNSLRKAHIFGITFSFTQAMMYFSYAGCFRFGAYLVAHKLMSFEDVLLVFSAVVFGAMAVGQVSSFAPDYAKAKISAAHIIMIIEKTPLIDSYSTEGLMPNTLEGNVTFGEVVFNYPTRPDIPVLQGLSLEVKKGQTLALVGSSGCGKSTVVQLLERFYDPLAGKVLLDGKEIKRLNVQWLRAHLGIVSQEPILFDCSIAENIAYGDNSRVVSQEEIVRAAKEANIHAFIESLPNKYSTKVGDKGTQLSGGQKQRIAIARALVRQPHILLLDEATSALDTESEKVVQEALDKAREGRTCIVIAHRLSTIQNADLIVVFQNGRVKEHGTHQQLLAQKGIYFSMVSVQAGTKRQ

[27] = MRT in CD-1 mouse plasma at 10 mg/kg, ip administered as single dose and measured after 15 to 240 mins by LC-MS/MS analysis; type: ADME, organism-based; details: time 15-240 min
[28] = AUC (0 to t) in CD-1 mouse brain at 30 mg/kg, ip administered as single dose and measured after 15 to 240 mins by LC-MS/MS analysis; type: ADME, organism-based; design: time upper 240 min, dose 30 mg/kg, time lower 15 min, route ip
GABA transporter 4 = molecular target: T1, GABA transporter 4 (Mus musculus, UniProt P31650); experiment: Inhibition of mouse GAT4 expressed in HEK293 cells assessed as reduction in [3H]-GABA uptake incubated for 10 mins; type: cell-based
T1 sequence (P31650 whole entry): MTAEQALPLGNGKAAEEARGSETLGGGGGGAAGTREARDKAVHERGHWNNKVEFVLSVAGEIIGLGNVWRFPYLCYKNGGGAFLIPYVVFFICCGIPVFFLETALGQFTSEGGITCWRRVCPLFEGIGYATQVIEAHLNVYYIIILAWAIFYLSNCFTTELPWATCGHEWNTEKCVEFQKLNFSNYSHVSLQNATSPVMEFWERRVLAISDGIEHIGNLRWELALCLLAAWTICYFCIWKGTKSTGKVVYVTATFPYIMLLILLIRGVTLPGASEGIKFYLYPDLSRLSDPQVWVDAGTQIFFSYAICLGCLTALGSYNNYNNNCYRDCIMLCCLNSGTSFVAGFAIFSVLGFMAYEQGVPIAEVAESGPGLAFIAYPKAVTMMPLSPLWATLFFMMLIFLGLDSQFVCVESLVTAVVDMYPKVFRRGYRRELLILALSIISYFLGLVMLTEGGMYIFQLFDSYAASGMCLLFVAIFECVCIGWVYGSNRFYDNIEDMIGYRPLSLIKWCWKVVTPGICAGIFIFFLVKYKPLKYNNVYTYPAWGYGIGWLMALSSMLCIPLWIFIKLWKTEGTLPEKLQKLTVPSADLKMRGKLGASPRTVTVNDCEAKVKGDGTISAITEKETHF

[29] = Tmax in CD-1 mouse plasma at 30 mg/kg, ip administered as single dose and measured after 15 to 240 mins by LC-MS/MS analysis; type: ADME, organism-based; details: time 15-240 min
[30] = Tmax in CD-1 mouse brain at 10 mg/kg, ip administered as single dose and measured after 15 to 240 mins by LC-MS/MS analysis; type: ADME, organism-based; details: time 15-240 min
[31] = Apparent clearance in CD-1 mouse plasma at 30 mg/kg, ip administered as single dose and measured after 15 to 240 mins by LC-MS/MS analysis; type: ADME, organism-based; details: time 15-240 min, read-out: CL(app)
[32] = Cmax in CD-1 mouse brain at 10 mg/kg, ip administered as single dose and measured after 15 to 240 mins by LC-MS/MS analysis; type: ADME, organism-based; design: time 15-240 min, dose 10 mg/kg, route ip

Chain of Beta-secretase 1 (P56817 whole entry): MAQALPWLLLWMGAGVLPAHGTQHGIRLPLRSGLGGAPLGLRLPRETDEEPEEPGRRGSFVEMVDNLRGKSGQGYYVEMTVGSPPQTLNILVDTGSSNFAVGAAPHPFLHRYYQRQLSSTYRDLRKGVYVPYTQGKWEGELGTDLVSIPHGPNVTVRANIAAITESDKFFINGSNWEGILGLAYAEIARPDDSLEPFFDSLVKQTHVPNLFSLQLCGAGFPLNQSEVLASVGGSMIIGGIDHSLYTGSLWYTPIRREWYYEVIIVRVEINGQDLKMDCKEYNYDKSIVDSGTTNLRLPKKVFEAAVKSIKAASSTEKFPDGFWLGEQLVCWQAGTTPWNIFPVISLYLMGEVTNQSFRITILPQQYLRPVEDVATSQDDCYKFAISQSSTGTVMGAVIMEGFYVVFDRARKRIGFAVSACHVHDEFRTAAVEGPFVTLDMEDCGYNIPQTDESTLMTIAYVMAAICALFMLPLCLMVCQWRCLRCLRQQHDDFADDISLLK

SMILES: CC(C)(C)c1cccc(CNCC(O)CNCCC(c2ccccc2)c2ccccc2)c1 (configuration not stated)
IC50 (Beta-secretase 1): 41 µM
IC50 (Cholinesterase): 6 µM

inhibition (INH) (Cytochrome P450 2D6): Active
AUC(0-t) [1]: 247 ng·h/mL
Kp [2]: 0.34
Cmax [3]: 312 ng/mL
half-life [4]: 0.912 h
Tmax [5]: 0.25 h
Drug metabolism [6]: Metabolite_Detected
AUC(0-t) [7]: 85.1 ng·h/mL
remaining at 2 h [8]: > 80%
IC50 (cells [9]): > 10 µM
Vz [10]: 84.4 L/kg
MRT [11]: 1.8 h
CL/F [12]: 577 mL/min/kg
half-life [13]: 5.84 h
MRT [14]: 1.03 h
half-life [15]: 1.6 h
Cmax [16]: 44.3 ng/mL
AUC(0-t) [17]: 441 ng·h/mL
MRT [18]: 1.88 h
IC50 [19]: > 10 µM
Cmax [20]: 192 ng/mL
half-life [21]: 4.24 h
inhibition (INH) (Cytochrome P450 3A4): Active
IC50 (cells [22]): > 10 µM
Tmax [23]: 0.25 h
Vz [24]: 80 L/kg
Kp [25]: 0.28
Activity [26]: <= 190%
MRT [27]: 1.24 h
AUC(0-t) [28]: 122 ng·h/mL
IC50 (GABA transporter 4): > 10 µM
Tmax [29]: 0.25 h
Tmax [30]: 0.25 h
CL/F [31]: 1070 mL/min/kg
Cmax [32]: 27.4 ng/mL
SMILES: O=C(CC(c1ccccc1)c1ccccc1)NCC(O)CNCC1CCCCC1 (configuration not stated)
